Tests used:
[1] = system: maternal HIV+ sera (antibodies); assay: RIA / ELISA binding of maternal HIV+ sera to gp120 and gp41 peptides (Example 3); parameters: species or system human
Outline: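 Peptides were coated at 10 μg/ml in carbonate buffer pH 9.6 and blocked with 1% BSA. Sera at 1:50 and 1:500 were incubated overnight at 4°C and detected with ¹²⁵I anti-human IgG (RIA) or HRP/TMB at OD450 (ELISA). Specific binding was taken as peptide minus no-peptide wells, scored as a ratio to normal human serum.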

[2] = system: maternal sera (antibodies); assay: ELISA peptide-binding of maternal sera (Example 6); parameters: species or system human
Outline: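 Third-trimester maternal sera, from HIV-1 transmitting and non-transmitting mothers, were tested by ELISA against ~16-residue peptides spanning HIV-1 external and transmembrane glycoproteins. Each serum was run with at least 40 peptides, and values are the percentage of sera binding each peptide.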

VSLKCTDLKNDTNTN [Peptide 97]
Binding of maternal sera to peptide (in words) ([1]; Example 3): No binding
Binding of maternal HIV+ serum to peptide (sera/NHS ratio) ([1]; Serum No. 1, Non-Transmission Group): - (specific OD450 or cpm of sera sample binding to peptide divided by the specific OD450 or cpm of NHS sample binding to peptide, which value is less than 2)
Binding of maternal HIV+ serum to peptide (sera/NHS ratio) ([1]; Serum No. 2, Non-Transmission Group): - (specific OD450 or cpm of sera sample binding to peptide divided by the specific OD450 or cpm of NHS sample binding to peptide, which value is less than 2)
Binding of maternal HIV+ serum to peptide (sera/NHS ratio) ([1]; Serum No. 3, Non-Transmission Group): - (specific OD450 or cpm of sera sample binding to peptide divided by the specific OD450 or cpm of NHS sample binding to peptide, which value is less than 2)
Binding of maternal HIV+ serum to peptide (sera/NHS ratio) ([1]; Serum No. 4, Transmission Group): - (specific OD450 or cpm of sera sample binding to peptide divided by the specific OD450 or cpm of NHS sample binding to peptide, which value is less than 2)
Binding of maternal HIV+ serum to peptide (sera/NHS ratio) ([1]; Serum No. 5, Transmission Group): - (specific OD450 or cpm of sera sample binding to peptide divided by the specific OD450 or cpm of NHS sample binding to peptide, which value is less than 2)
Binding of maternal HIV+ serum to peptide (sera/NHS ratio) ([1]; Serum No. 6, Non-Transmission Group): - (specific OD450 or cpm of sera sample binding to peptide divided by the specific OD450 or cpm of NHS sample binding to peptide, which value is less than 2)
Binding of maternal HIV+ serum to peptide (sera/NHS ratio) ([1]; Serum No. 7, Non-Transmission Group): - (specific OD450 or cpm of sera sample binding to peptide divided by the specific OD450 or cpm of NHS sample binding to peptide, which value is less than 2)
Binding of maternal HIV+ serum to peptide (sera/NHS ratio) ([1]; Serum No. 8, Non-Transmission Group): - (specific OD450 or cpm of sera sample binding to peptide divided by the specific OD450 or cpm of NHS sample binding to peptide, which value is less than 2)
Binding of maternal HIV+ serum to peptide (sera/NHS ratio) ([1]; Serum No. 9, Non-Transmission Group): - (specific OD450 or cpm of sera sample binding to peptide divided by the specific OD450 or cpm of NHS sample binding to peptide, which value is less than 2)
Binding of maternal HIV+ serum to peptide (sera/NHS ratio) ([1]; Serum No. 10, Transmission Group): - (specific OD450 or cpm of sera sample binding to peptide divided by the specific OD450 or cpm of NHS sample binding to peptide, which value is less than 2)
Binding of maternal HIV+ serum to peptide (sera/NHS ratio) ([1]; Serum No. 11, Non-Transmission Group): - (specific OD450 or cpm of sera sample binding to peptide divided by the specific OD450 or cpm of NHS sample binding to peptide, which value is less than 2)
Binding of maternal HIV+ serum to peptide (sera/NHS ratio) ([1]; Serum No. 12, Non-Transmission Group): - (specific OD450 or cpm of sera sample binding to peptide divided by the specific OD450 or cpm of NHS sample binding to peptide, which value is less than 2)
Binding of maternal HIV+ serum to peptide (sera/NHS ratio) ([1]; Serum No. 13, Transmission Group): - (specific OD450 or cpm of sera sample binding to peptide divided by the specific OD450 or cpm of NHS sample binding to peptide, which value is less than 2)
Binding of maternal HIV+ serum to peptide (sera/NHS ratio) ([1]; Serum No. 14, Transmission Group): - (specific OD450 or cpm of sera sample binding to peptide divided by the specific OD450 or cpm of NHS sample binding to peptide, which value is less than 2)
Binding of maternal HIV+ serum to peptide (sera/NHS ratio) ([1]; Serum No. 15, Transmission Group): - (specific OD450 or cpm of sera sample binding to peptide divided by the specific OD450 or cpm of NHS sample binding to peptide, which value is less than 2)
Binding of maternal HIV+ serum to peptide (sera/NHS ratio) ([1]; Serum No. 16, Non-Transmission Group): - (specific OD450 or cpm of sera sample binding to peptide divided by the specific OD450 or cpm of NHS sample binding to peptide, which value is less than 2)
Binding of maternal HIV+ serum to peptide (sera/NHS ratio) ([1]; Serum No. 17, Non-Transmission Group): - (specific OD450 or cpm of sera sample binding to peptide divided by the specific OD450 or cpm of NHS sample binding to peptide, which value is less than 2)
Binding of maternal HIV+ serum to peptide (sera/NHS ratio) ([1]; Serum No. 18, Non-Transmission Group): - (specific OD450 or cpm of sera sample binding to peptide divided by the specific OD450 or cpm of NHS sample binding to peptide, which value is less than 2)
Binding of maternal HIV+ serum to peptide (sera/NHS ratio) ([1]; Serum No. 19, Transmission Group): - (specific OD450 or cpm of sera sample binding to peptide divided by the specific OD450 or cpm of NHS sample binding to peptide, which value is less than 2)
Binding of maternal HIV+ serum to peptide (sera/NHS ratio) ([1]; Serum No. 20, Non-Transmission Group): - (specific OD450 or cpm of sera sample binding to peptide divided by the specific OD450 or cpm of NHS sample binding to peptide, which value is less than 2)
Number of Non-Transmitters which bound to peptide ([2]; Non-Transmitters, N = 12): 2
Percent of Non-Transmitters which bound to peptide ([2]; Non-Transmitters, N = 12): 16.7%
Number of Transmitters which bound to peptide ([2]; Transmitters, N = 4): 0
Percent of Transmitters which bound to peptide ([2]; Transmitters, N = 4): 0%

Reference: US5556744A, “Methods and compositions for diagnosing and treating certain HIV infected patients” (The Trustees of the University of Pennsylvania, priority 1994, dated 1996)
